Measured values as given in patent US20250326720A1, “CAREBASTINE SALT AND USE OF SAME” (priority 2022, published 2025).
In brackets after ≈: the same amount, converted by molar mass. Counter-ions that a name gives are not always drawn. Like-named read-outs stand apart in the source and are kept apart here. Marks after values point to notes of the source that are not given here.

Columns and labels:
KM mice = conditions: for Mortality rate of mice / Number of surviving mice / abnormalities during observation period and in gross anatomical observation: single intragastric; for Mortality rate of mice / Number of surviving mice: 14 days observation; for Number of surviving mice: 10 mice per group; for abnormalities during observation period and in gross anatomical observation: low dose, mice
Description: All drugs were administered by intragastric administration, and the blank control group was administered with an equal volume of 0.5% CMC-Na solution. All animals were fasted for 12 hours before administration, but were allowed to drink water freely.
After administration, the mice were kept and observed for 14 days, and the toxic reactions (such as death) of the mice were observed and recorded every day. After the observation period, all surviving animals were dissected to observe whether there were obvious lesions in each organ.

[1] = assay type: in vivo; conditions: SD rats
Description: Twenty-four SD rats weighing about 180 g to 200 g were randomly divided into 4 groups, with 6 rats in each group, half of which were male and half were female. The rats were given the corresponding drugs by intragastric administration.
The rats were fasted for 12 hours before administration, but were allowed to drink water freely.
Preparation of test substances: The preparation of test substances was carried out on the workbench in the related art in the preparation room.
Blank blood was collected before administration, and blood was collected at predetermined time points of 0.25 h, 0.5 h, 0.75 h, 1 h, 2 h, 3 h, 4 h, 6 h, 8 h, 10 h, and 24 h after administration. About 0.5 mL of blood was collected and placed in an EDTA-K2 tube, and the plasma was separated by centrifugation and stored at −80° C. The prototype and the metabolite, namely, carebastine, in a plasma sample were detected and analyzed by liquid chromatography-mass spectrometry (LC-MS/MS), and pharmacokinetic parameters were calculated.

[2] = tested on: histamine-induced shock in guinea pigs; assay: Histamine-induced shock test in guinea pigs; assay type: in vivo; conditions: gavage, equimolar to 1.00 mg/kg ebastine, histamine phosphate i.v. one hour after administration, n = 10; for Time of accelerated respiration: x ± s
Description: One hour after administration, 0.125 wt. % histamine phosphate saline solution was injected intravenously into lateral sides of hind paws of the guinea pigs at 2 ml/kg. After the injection was completed within 10 s, a stopwatch was used immediately to observe the latency period for the guinea pigs to develop accelerated respiration and collapse with convulsions.

Hygroscopicity study = assay type: physicochemical; conditions: 25° C.±1° C., relative humidity 80%, 24 hours
Description: The preparation of carebastine hydrochloride refers to the description of patent U.S. Pat. No. 6,340,761, and the purity is 99% or more. […] (2) An appropriate amount of the sample was spread flat in the weighing bottle. […] (3) The weighing bottle was opened and placed with the lid under the above constant temperature and humidity conditions for 24 hours. (4) The lid was put on the weighing bottle and the weight was accurately weighed (m3).

[3] = Solubility test in different media; assay type: physicochemical
Description: Carebastine (Comparative Example 2) and carebastine p-toluenesulfonate (Example 3).
Hydrochloric acid solution with a pH of 1.2:7.65 ml of hydrochloric acid was diluted to 1000 ml with water, and shaken evenly to obtain the solution.
Phosphate buffer with a pH of 4.5:3.40278 g of KH2PO4 was weighed, dissolved in water and diluted to 500 ml, and shaken evenly to obtain the solution.
Phosphate buffer with a pH of 6.8:3.40353 g of KH2PO4 and 0.4428 g of sodium hydroxide were weighed, dissolved in water and diluted to 500 ml, and shaken evenly to obtain the solution.
Appropriate amounts of the compounds of Example 3 and Comparative Example 2 were respectively placed in conical flasks containing 50 ml of water, 50 ml of a hydrochloric acid solution with a pH of 1.2, 50 ml of a phosphate buffer with a pH of 4.5, and 50 ml of a phosphate buffer with a pH of 6.8, respectively, so that the solutions were supersaturated and insoluble matter was clearly visible.
The conical flasks were placed in a thermostatic water bath at 37° C. and an oscillation rate of 120 r/min. Samples were taken at 24 h, 48 h, and 72 h, and detected by liquid chromatography.

[4] = Stability study (influencing factors, HPLC purity); assay type: physicochemical; conditions: for stability under light / Purity Day 12 under light: 5000Lux; for Purity Day 12 under high temperature / Purity Day 12 under light / Purity Day 0 / Purity Day 12 under high humidity: HPLC; for Purity Day 12 under high temperature: 60° C.; for Purity Day 12 under high humidity: RH80%
Text: Carebastine (Comparative Example 2, Comparative Example 2′), carebastine potassium salt (Example 1), and carebastine p-toluenesulfonate (Example 3, Example 5).
Three samples of each of carebastine (Comparative Example 2), refined carebastine (Comparative Example 2′), carebastine potassium salt (Example 1), carebastine p-toluenesulfonate (Example 3), and carebastine p-toluenesulfonate (Example 5) were weighed and placed in weighing flasks. The samples of each group were placed under high temperature (60° C.), high humidity (RH80%), and light (5000Lux) conditions, and the samples were taken for testing after 12 days. Note: The refined carebastine of Comparative Example 2′ can be prepared by column chromatography of Comparative Example 2 using common technical means in the related art.
Detection method: An appropriate amount of each of the samples was weighed accurately, and is dissolved in acetonitrile and quantitatively diluted to a solution containing about 0.08 mg per 1 ml. The detection was carried out using high performance liquid chromatography, octadecylsilane bonded silica gel as a filler, and water-acetonitrile (1:1) as a mobile phase, under a detection wavelength of 256 nm, column temperature of 35° C., and injection volume of 10 μL. Each sample solution was injected into the liquid chromatograph and the chromatogram was recorded.

[5] = high dose (equimolar to 5 g/kg ebastine)
[6] = low dose (equimolar to 2.5 g/kg ebastine)

Row | SMILES | Mortality rate [2] | Time of convulsion and collapse [2] | Characteristic description (hygroscopicity) (Hygroscopicity study) | Weight gain Percentage (Hygroscopicity study) [%] | Purity Day 12 under high temperature ([4]; 12 days) [%] | Purity Day 12 under light ([4]; 12 days) [%] | Purity Day 0 [4] [%] | Purity Day 12 under high humidity ([4]; 12 days) [%] | Time of accelerated respiration [2] [s] | further results
1 | CC(C)(C)c1ccc(C(=O)CCCN2CCC(OC(c3ccccc3)c3ccccc3)CC2)cc1 [Comparative Example 1, ebastine] | 0/10 | 349* s |  |  |  |  |  |  |  | MDT (KM mice; both, KM, mouse, in vivo, 14 days): > 2500 mg/kg; gender differences (AUC and Cmax, female vs male rats) ([1]; three female vs three male per group): showed gender differences; content of the prototype ([1]; prototype (ebastine) in plasma, single intragastric 10 mg/kg): lower than 3 ng/mL
2 | CC(C)(C(=O)O)c1ccc(C(=O)CCCN2CCC(OC(c3ccccc3)c3ccccc3)CC2)cc1 [Comparative Example 2, 2-(4-(4-(4-(diphenylmethoxy)piperidin-1-yl)butyryl)phenyl)-2-methylpropanoic acid] |  |  | Hygroscopic | 6 | 97.22 | 87.28 | 97.78 | 97.41 |  | solubility ([3]; Hydrochloric acid solution with a pH of 1.2, 37° C., 24 h): 460 µg/mL (≈ 921 µM); solubility ([3]; Hydrochloric acid solution with a pH of 1.2, 37° C., 48 h): 540 µg/mL (≈ 1080 µM); solubility ([3]; Hydrochloric acid solution with a pH of 1.2, 37° C., 72 h): 390 µg/mL (≈ 781 µM); solubility ([3]; Phosphate buffer with a pH of 4.5, 37° C., 24 h): 200 µg/mL (≈ 400 µM); solubility ([3]; Phosphate buffer with a pH of 4.5, 37° C., 48 h): 190 µg/mL (≈ 380 µM); solubility ([3]; Phosphate buffer with a pH of 4.5, 37° C., 72 h): 200 µg/mL (≈ 400 µM); solubility ([3]; Phosphate buffer with a pH of 6.8, 37° C., 24 h): 30 µg/mL (≈ 60 µM); solubility ([3]; Phosphate buffer with a pH of 6.8, 37° C., 48 h): 30 µg/mL (≈ 60 µM); solubility ([3]; Phosphate buffer with a pH of 6.8, 37° C., 72 h): 30 µg/mL (≈ 60 µM); solubility ([3]; Water, 37° C., 24 h): 720 µg/mL (≈ 1440 µM); solubility ([3]; Water, 37° C., 48 h): 520 µg/mL (≈ 1040 µM); solubility ([3]; Water, 37° C., 72 h): 520 µg/mL (≈ 1040 µM); stability under light ([4]; 12 days): extremely unstable
3 | CC(C)(C(=O)O)c1ccc(C(=O)CCCN2CCC(OC(c3ccccc3)c3ccccc3)CC2)cc1 [Comparative Example 2′, carebastine] |  |  |  |  | 99.45 | 88.11 | 99.65 | 99.25 |  | 
4 | CC(C)(C(=O)O)c1ccc(C(=O)CCCN2CCC(OC(c3ccccc3)c3ccccc3)CC2)cc1 [Comparative Example 3, carebastine hydrochloride] |  |  |  |  |  |  |  |  |  | Characteristic description (hygroscopicity) (Hygroscopicity study; hydrochloride): Extremely hygroscopic; Weight gain Percentage (Hygroscopicity study; hydrochloride): 15.9%; solubility [3]: 80 µg/mL; solubility ([3]; pH 6.8): 10 µg/mL
5 | CC(C)(C(=O)[O-])c1ccc(C(=O)CCCN2CCC(OC(c3ccccc3)c3ccccc3)CC2)cc1.[K+] [Example 1, potassium 2-(4-(4-(4-(diphenylmethoxy)piperidin-1-yl)butyryl)phenyl)-2-methylpropanoate] | 0/10 | >600*^▴ s | No or almost no hygroscopicity | −0.2 | 98.23 | 97.48 | 98.42 | 98.38 | 294 ± 24.42 | Mortality rate of mice (KM mice; [5]): 20%; Number of surviving mice (KM mice; [5]): 8; Mortality rate of mice (KM mice; [6]): 0; Number of surviving mice (KM mice; [6]): 10; abnormalities during observation period and in gross anatomical observation (KM mice; 14 days): no obvious abnormalities were observed; stability under light ([4]; 12 days): slightly reduced
6 | CC(C)(C(=O)[O-])c1ccc(C(=O)CCCN2CCC(OC(c3ccccc3)c3ccccc3)CC2)cc1.[Na+] [Example 2, sodium 2-(4-(4-(4-(diphenylmethoxy)piperidin-1-yl)butyryl)phenyl)-2-methylpropanoate] | 0/10 | >600*^▴ s |  |  |  |  |  |  | 275 ± 31.41 | 
7 | CC(C)(C(=O)O)c1ccc(C(=O)CCCN2CCC(OC(c3ccccc3)c3ccccc3)CC2)cc1.Cc1ccc(S(=O)(=O)O)cc1 [Example 3, 2-(4-(4-(4-(diphenylmethoxy)piperidin-1-yl)butyryl)phenyl)-2-methylpropanoic acid p-toluenesulfonate] | 0/10 | >600*^▴ s | Slightly hygroscopic | 0.3 |  |  |  |  | 351 ± 38.16 | Mortality rate of mice (KM mice; [5]): 10%; Number of surviving mice (KM mice; [5]): 9; Mortality rate of mice (KM mice; [6]): 0; Number of surviving mice (KM mice; [6]): 10; abnormalities during observation period and in gross anatomical observation (KM mice; 14 days): no obvious abnormalities were observed; stability under high temperature, high humidity and light conditions ([4]; 12 days): stable; Purity Day 12 under high temperature ([4]; 12 days, p-toluenesulfonate): 99.94%; Purity Day 12 under light ([4]; 12 days, p-toluenesulfonate): 99.91%; Purity Day 0 ([4]; p-toluenesulfonate): 99.99%; Purity Day 12 under high humidity ([4]; 12 days, p-toluenesulfonate): 99.98%
8 | CC(C)(C(=O)O)c1ccc(C(=O)CCCN2CCC(OC(c3ccccc3)c3ccccc3)CC2)cc1.CS(=O)(=O)O [Example 4, 2-(4-(4-(4-(diphenylmethoxy)piperidin-1-yl)butyryl)phenyl)-2-methylpropanoic acid methanesulfonate] | 0/10 | >600*^▴ s |  |  |  |  |  |  | 256 ± 24.05 | 
9 | CC(C)(C(=O)O)c1ccc(C(=O)CCCN2CCC(OC(c3ccccc3)c3ccccc3)CC2)cc1.Cc1ccc(S(=O)(=O)O)cc1 [Example 5, carebastine p-toluenesulfonate] |  |  |  |  | 97.90 | 97.80 | 97.90 | 97.89 |  | 
